Experiments:
[1] = human, in vivo
Excerpt: In some embodiments, intravenous fluorescein can be used as the fluorescent agent.

[2] = human, cited from earlier work

concentration of fluorescein in urine [1]: about 0.1 mg/ml
concentration of fluorescein in urine relative to concentration in the blood [1]: about 5 ×
rate of drug excreted into the ureters [1]: 0.05 mg/min
Compound: O=C1OC2(c3ccc(O)cc3Oc3cc(O)ccc32)c2ccccc21 [fluorescein]
fraction of dose metabolized ([2]; 14 mg/kg dose, IV, within 1 hour of administration): 80%
time the urine remains slightly fluorescent post dose ([2]; post dose): 24 to 36 h
volume of distribution [2]: 0.5 L/kg
